# Data reported in ChEMBL document CHEMBL5465560, “Selectivity Literature for EUbOPEN Chemogenomic Library” (2024).
# Key:
# [1] = tested on: RAF proto-oncogene serine/threonine-protein kinase (Homo sapiens), P04049 [Y340D,Y341D]; assay: Selectivity interaction (LanthaScreen Eu Kinase Binding Assay) EUB0001632a RAF1; conditions: at 10 µM
# [2] = molecular target: Transcription initiation factor TFIID subunit 1 (Homo sapiens) (UniProt P21675); assay: Selectivity interaction (Human bromodomain panel (DSF assay)) EUB0000233b TAF1
# [3] = molecular target: Ribosomal protein S6 kinase alpha-1 (Homo sapiens, UniProt Q15418); assay: Selectivity interaction (KinomeScan (DiscoverX)) EUB0000666a RPS6KA1; conditions: at 10 µM
# Ribosomal protein S6 kinase alpha-1, sequence (Q15418 whole entry): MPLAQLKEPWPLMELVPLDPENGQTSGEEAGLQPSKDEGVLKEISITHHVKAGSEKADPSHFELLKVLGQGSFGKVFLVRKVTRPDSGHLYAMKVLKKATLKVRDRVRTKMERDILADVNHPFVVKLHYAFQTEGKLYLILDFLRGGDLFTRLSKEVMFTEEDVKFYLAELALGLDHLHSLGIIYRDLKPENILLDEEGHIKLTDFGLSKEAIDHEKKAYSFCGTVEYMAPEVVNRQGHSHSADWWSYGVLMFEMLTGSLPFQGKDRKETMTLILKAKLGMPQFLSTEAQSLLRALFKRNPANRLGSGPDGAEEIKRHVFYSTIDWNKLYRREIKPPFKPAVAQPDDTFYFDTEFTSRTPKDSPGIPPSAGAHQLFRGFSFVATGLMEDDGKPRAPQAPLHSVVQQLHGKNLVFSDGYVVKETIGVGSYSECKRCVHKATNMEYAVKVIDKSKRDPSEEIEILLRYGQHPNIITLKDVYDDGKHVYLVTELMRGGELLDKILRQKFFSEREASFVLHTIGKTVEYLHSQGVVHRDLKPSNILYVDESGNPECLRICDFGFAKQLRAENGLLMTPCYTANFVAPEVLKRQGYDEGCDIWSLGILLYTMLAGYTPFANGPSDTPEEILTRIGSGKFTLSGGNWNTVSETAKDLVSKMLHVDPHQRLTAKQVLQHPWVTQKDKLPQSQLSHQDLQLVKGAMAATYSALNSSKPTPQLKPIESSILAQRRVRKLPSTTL
# [4] = molecular target: Tyrosine-protein kinase Fyn (Homo sapiens) (UniProt P06241); assay: Selectivity interaction (SelectScreen profiling (Invitrogen)) EUB0000607a FYN; conditions: at 2 µM
# Tyrosine-protein kinase Fyn (Homo sapiens), sequence (P06241 2-537 limits assumed): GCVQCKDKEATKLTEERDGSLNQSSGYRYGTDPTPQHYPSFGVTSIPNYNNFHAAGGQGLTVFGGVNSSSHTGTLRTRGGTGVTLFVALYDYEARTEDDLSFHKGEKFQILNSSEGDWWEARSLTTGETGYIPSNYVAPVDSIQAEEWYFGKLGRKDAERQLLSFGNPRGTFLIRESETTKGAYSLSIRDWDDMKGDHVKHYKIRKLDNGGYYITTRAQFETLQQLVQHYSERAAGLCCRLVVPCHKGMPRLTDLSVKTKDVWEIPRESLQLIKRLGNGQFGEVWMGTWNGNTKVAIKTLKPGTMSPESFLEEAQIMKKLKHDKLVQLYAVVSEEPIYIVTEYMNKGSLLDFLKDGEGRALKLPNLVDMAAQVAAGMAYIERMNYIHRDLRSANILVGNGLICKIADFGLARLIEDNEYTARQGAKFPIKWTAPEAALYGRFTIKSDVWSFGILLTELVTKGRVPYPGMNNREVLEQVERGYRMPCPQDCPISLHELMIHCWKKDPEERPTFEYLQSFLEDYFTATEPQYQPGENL
# [5] = molecular target: T1, Protein kinase C iota type (Homo sapiens) (UniProt P41743); assay: Selectivity interaction (KinomeScan (DiscoverX)) EUB0000595a PRKCI; conditions: at 10 µM
# T1 sequence (whole entry): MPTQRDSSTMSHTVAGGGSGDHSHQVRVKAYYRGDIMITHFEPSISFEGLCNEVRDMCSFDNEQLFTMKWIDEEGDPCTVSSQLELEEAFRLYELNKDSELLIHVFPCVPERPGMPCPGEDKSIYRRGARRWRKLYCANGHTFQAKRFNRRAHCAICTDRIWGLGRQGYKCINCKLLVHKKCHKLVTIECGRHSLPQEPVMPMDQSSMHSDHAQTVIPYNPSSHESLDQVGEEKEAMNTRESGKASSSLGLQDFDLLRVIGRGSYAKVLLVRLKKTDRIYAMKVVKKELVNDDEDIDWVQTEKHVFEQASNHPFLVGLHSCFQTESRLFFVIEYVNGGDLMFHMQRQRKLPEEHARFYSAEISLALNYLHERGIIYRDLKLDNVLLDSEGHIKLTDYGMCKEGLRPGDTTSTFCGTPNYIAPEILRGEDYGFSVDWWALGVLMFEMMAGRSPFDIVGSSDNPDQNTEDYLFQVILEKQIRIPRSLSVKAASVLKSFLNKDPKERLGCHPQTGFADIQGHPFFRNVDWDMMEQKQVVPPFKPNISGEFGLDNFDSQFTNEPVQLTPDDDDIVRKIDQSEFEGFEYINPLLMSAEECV
# [6] = molecular target: Protein-tyrosine kinase 6 (Homo sapiens, UniProt Q13882); assay: Selectivity interaction (Ambit KINOMEscan and KiNATiv profiling in Jurkat cells) EUB0000090b PTK6; assay type: cell-based; conditions: at 1 µM
# Protein-tyrosine kinase 6, sequence (Q13882 whole entry, looked up): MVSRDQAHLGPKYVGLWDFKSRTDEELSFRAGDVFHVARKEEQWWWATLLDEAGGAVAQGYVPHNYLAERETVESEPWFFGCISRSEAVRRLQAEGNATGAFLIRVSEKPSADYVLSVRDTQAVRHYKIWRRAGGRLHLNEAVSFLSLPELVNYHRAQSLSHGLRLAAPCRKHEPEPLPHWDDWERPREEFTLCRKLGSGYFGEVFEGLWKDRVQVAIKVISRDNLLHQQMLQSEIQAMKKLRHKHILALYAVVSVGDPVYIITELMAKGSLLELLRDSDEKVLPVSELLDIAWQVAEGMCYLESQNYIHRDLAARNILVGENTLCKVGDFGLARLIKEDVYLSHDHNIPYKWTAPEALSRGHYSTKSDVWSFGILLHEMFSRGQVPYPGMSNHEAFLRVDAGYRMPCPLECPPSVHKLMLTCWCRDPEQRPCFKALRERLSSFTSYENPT
# [7] = molecular target: T2, Serine/threonine-protein kinase ICK (Homo sapiens) (UniProt Q9UPZ9); assay: Selectivity interaction (KinomeScan (DiscoverX)) EUB0000655a ICK; conditions: at 10 µM
# T2 sequence (whole entry): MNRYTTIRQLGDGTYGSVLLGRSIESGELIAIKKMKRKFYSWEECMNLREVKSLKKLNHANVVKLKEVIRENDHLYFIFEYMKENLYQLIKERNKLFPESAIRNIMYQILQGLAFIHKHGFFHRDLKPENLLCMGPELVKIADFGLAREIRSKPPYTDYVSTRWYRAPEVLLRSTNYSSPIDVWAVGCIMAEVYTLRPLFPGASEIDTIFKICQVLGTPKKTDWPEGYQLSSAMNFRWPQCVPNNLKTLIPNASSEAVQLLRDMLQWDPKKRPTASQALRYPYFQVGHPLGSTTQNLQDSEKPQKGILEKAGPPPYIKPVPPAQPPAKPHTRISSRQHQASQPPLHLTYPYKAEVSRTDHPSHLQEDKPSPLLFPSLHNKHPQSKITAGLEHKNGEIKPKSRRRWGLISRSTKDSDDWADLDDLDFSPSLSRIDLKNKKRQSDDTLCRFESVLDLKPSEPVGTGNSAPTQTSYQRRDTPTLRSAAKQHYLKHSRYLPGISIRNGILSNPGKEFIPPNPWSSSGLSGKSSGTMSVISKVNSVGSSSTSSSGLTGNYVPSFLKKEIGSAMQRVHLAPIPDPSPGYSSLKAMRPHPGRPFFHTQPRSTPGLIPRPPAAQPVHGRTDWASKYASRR
# [8] = tested on: Serine/threonine-protein kinase B-raf (Homo sapiens), P15056 [V600E]; conditions: at 10 µM
# Serine/threonine-protein kinase B-raf (Homo sapiens), P15056 [V600E], sequence (P15056 whole entry V600E): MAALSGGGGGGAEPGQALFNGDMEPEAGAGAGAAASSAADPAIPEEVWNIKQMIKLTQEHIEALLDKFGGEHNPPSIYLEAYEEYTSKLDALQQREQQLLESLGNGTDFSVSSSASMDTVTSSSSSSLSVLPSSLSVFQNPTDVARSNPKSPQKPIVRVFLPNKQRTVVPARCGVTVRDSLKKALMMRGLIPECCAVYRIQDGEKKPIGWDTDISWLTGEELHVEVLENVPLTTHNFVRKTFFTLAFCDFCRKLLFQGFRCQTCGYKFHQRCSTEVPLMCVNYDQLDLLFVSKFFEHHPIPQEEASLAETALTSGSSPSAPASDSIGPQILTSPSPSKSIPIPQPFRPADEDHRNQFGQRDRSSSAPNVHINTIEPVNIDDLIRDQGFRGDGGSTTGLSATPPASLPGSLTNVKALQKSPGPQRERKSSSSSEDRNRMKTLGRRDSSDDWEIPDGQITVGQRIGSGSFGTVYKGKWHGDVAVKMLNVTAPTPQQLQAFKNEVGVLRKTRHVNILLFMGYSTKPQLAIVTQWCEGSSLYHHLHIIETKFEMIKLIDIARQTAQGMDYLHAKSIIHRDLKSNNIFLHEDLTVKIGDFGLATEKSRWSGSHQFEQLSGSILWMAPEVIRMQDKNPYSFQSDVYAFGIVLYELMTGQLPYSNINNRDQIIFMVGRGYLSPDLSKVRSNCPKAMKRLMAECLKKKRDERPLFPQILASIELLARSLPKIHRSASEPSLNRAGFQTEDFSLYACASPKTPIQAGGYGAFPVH
# [9] = tested on: Proto-oncogene tyrosine-protein kinase receptor Ret (Homo sapiens), P07949 [M918T]; conditions: at 10 µM
# Proto-oncogene tyrosine-protein kinase receptor Ret (Homo sapiens), P07949 [M918T], sequence (P07949 whole entry M918T): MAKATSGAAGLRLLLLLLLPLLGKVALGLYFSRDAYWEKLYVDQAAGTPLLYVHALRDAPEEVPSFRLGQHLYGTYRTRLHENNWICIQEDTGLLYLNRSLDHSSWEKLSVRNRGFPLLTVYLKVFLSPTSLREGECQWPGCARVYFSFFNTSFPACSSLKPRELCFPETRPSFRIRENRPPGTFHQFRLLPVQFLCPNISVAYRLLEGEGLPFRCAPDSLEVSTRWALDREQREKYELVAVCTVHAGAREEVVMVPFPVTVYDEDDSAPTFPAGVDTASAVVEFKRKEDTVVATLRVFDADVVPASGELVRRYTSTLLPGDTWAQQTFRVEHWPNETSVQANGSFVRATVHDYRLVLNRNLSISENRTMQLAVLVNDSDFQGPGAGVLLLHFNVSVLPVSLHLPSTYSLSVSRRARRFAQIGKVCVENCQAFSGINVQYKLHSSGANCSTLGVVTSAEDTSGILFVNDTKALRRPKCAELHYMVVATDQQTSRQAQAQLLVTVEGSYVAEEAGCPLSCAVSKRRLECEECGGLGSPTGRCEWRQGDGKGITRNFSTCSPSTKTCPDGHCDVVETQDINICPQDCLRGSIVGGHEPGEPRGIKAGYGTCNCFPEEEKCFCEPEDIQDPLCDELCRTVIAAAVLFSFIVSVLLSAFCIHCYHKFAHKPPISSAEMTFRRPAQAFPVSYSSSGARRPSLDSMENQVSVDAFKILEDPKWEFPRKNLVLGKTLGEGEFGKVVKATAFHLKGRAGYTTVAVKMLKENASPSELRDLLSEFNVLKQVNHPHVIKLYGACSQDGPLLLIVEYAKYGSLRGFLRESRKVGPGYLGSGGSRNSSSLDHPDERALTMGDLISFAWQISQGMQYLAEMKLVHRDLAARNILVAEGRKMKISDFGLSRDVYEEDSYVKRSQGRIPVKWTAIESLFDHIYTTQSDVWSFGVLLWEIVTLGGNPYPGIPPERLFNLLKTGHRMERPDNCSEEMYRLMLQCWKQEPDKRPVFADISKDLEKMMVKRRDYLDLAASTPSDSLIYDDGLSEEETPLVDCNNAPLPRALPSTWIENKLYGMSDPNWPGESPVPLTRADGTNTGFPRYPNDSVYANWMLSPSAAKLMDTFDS
# [10] = molecular target: T3, Receptor-interacting serine/threonine-protein kinase 1 (Homo sapiens) (UniProt Q13546); conditions: at 10 µM
# T3 sequence (whole entry): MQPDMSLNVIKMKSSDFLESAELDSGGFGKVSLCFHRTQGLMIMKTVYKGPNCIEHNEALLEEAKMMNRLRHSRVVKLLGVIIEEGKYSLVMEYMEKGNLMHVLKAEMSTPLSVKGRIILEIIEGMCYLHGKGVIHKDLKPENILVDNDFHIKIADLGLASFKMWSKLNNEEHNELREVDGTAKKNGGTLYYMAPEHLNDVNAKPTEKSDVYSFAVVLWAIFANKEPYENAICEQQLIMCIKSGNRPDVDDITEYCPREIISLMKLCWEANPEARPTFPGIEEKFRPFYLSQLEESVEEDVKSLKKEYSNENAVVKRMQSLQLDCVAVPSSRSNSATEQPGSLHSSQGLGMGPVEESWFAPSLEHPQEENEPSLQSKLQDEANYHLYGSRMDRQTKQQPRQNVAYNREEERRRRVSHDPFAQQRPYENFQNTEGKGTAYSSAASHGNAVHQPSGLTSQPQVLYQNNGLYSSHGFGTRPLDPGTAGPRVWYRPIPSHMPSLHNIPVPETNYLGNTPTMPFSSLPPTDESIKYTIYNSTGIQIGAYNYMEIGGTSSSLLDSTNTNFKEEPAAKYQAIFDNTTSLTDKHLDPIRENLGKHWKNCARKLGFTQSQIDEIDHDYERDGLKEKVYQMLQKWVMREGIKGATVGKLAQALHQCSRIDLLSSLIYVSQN
# [11] = molecular target: Putative phosphatidylinositol 4-kinase alpha-like protein P2 (Homo sapiens) (UniProt A4QPH2); assay: Selectivity interaction (ActivX KiNativ screen (ex vivo kinase selectivity in human PBMCs)) EUB0001619a PI4KAP2; assay type: cell-based; conditions: PBMC, at 1 µM
# Putative phosphatidylinositol 4-kinase alpha-like protein P2 (Homo sapiens), sequence (A4QPH2 whole entry): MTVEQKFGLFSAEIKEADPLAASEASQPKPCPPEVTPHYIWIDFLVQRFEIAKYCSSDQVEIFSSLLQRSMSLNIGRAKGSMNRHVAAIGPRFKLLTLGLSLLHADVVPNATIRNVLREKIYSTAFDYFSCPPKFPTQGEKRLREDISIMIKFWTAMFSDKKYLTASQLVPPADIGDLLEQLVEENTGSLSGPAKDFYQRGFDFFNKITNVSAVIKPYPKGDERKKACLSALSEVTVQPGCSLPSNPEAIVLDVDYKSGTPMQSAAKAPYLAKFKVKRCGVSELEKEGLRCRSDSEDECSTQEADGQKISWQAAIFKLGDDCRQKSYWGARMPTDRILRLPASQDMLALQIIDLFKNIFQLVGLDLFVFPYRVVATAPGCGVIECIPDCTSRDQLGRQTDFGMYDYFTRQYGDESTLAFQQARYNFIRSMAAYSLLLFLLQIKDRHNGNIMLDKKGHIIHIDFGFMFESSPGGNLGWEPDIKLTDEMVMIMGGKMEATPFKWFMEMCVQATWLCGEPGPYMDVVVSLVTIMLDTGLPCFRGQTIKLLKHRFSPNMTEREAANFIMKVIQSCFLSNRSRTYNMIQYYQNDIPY
# RAF proto-oncogene serine/threonine-protein kinase (Homo sapiens), P04049 [Y340D,Y341D], sequence (P04049 whole entry Y340D/Y341D): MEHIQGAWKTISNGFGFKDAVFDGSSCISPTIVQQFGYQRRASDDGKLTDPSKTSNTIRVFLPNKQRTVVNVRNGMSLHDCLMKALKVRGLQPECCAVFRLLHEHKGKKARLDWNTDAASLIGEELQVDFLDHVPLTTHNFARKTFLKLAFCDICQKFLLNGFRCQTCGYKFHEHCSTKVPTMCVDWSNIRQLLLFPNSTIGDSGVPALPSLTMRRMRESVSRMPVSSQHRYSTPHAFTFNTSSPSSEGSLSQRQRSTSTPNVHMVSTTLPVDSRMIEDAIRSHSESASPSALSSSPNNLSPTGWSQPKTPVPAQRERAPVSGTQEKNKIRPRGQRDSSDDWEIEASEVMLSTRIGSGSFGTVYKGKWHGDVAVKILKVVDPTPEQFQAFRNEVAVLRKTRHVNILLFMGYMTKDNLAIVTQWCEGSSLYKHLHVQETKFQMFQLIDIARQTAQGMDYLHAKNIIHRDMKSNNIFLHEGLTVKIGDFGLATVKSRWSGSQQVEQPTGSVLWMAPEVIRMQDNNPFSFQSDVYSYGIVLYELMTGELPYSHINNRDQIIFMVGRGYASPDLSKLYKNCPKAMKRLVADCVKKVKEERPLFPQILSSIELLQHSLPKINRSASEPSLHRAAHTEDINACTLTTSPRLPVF
compound,measurement,setting,value
Cn1cc(-n2cnc3c(NCc4nc5cc(Cl)c(Cl)cc5[nH]4)nc(N4CCOCC4)nc32)cn1,% of inhibition,[1],5.65%
CN(C)CCCOc1ccc(-c2cc(NCCCn3cccn3)nc(S(C)(=O)=O)n2)cc1,dTM,[2],< 2 K
O=C(NOC[C@H](O)CO)c1ccc(F)c(F)c1Nc1ccc(I)cc1F,% of control,[3],84%
CNC(=O)Nc1ccc(-c2nc(N3CC4CCC(C3)O4)c3cnn(C4CCC5(CC4)OCCO5)c3n2)cc1,% of inhibition,[4],2%
COCC(=O)NC/C=C/c1ccc2ncnc(Nc3ccc(Oc4ccc(C)nc4)c(C)c3)c2c1 [CP-724714],% of control,[5],93%
CN(C)C/C=C/C(=O)Nc1ccc(C(=O)N2CCCC(Nc3ncc(Cl)c(-c4c[nH]c5ccccc45)n3)C2)cc1 (stereo unspecified),% of control,[6],84%
CN(C)CCOc1ccc(-c2nc(-c3ccncc3)c(-c3ccc4c(c3)CC/C4=N\O)[nH]2)cc1,% of control,[7],100%
same,% of control,[8],0%
Cc1cc([C@@H](C)Nc2ccccc2C(=O)O)c2nc(N3CCOCC3)cc(=O)n2c1 [AZD-6482],% of control,[9],100%
same,% of control,[10],100%
N#Cc1cccc(-c2c[nH]c3ncnc(N4CCOCC4)c23)c1,% of inhibition,[11],6%
